Experimental data as given in patent publication US8580711B2, “Decreasing or preventing sub-surface geological matter contamination by agrochemicals” (Yeda Research and Development Co. Ltd., priority 2005, dated 2013).

Tests used:
[1] = USGS estimate; cited from earlier work
[2] = cited from earlier work
[3] = batch mode homogeneous catalytic reductive dechlorination of endosulfan in contaminated water, titanium (III) citrate as bulk electron donor; conditions: after 72 hours of reaction, about 0.010 mM catalyst, 0.32 ppm endosulfan initially, room temperature
Procedure: 40 milliliter (0.04 liter) glass vials (usually filled with about 25 milliliters of reaction solution), fitted with Teflon®-clear silicon sealing cups, were used at room temperature (between about 20° C. and about 25° C.) and atmospheric pressure. Contents of each glass vial (batch reactor) were mixed by securing the glass vial onto an orbital shaker (model TS-600, from MRC, Israel) having automatic (mixing) speed control. Multiple replicates of each glass vial (batch reactor) filled with reaction solution were prepared at the beginning of an experiment.
The glass vial batch mode reaction systems were prepared under oxygen free atmosphere conditions, using an anaerobic chamber (Coy Laboratory Products, MI, USA) containing an oxygen free atmosphere composed of a mixture of nitrogen [N2] gas and hydrogen [H2] gas, having a 95/5 molar or partial pressure ratio.
GC/MS was used for monitoring concentration over time, of endosulfan (as α and β isomers) in the endosulfan contaminated water, during the batch mode homogeneous catalytic reactions.
The extracted organic phase was then transferred to a gas chromatograph vial and analyzed for the presence of the endosulfan (as α and β isomers) contaminant.
The reactions were performed at room temperature (between about 20° C. and about 25° C.) and atmospheric pressure.
A volume of 25 milliliter (0.025 liter) was taken from the appropriate stock solution of water contaminated with endosulfan and added to the empty 40 milliliter glass vial (batch reactor), for providing an initial concentration of 0.32 mg endosulfan per liter contaminated water, or 0.32 ppm endosulfan in the contaminated water. This procedure was repeated, for preparing at least two glass vials (batch reactors) for each experiment.
Reducing conditions were not naturally prevalent in the endosulfan contaminated water in the glass vials (batch reactors) for effectively enabling the phenomena, mechanisms, and processes of the electron transfer mediated (homogeneous) catalytic reductive dehalogenation of the endosulfan contaminant in the contaminated water. Thus, reducing conditions in the endosulfan contaminated water were anthropogenically produced by exposing the endosulfan contaminated water to titanium (III) citrate [Ti(OC(CH2COOH)2COOH] as the bulk electron donor or reducing agent, immediately before exposing the endosulfan contaminated water to the catalytically effective amount of each respective above stated metalloporphyrin complex, or metallocorrin complex, electron transfer mediator (homogeneous catalyst).
The pH of the solution was then adjusted to the desired value (e.g., 9.0) by adding small amounts of NaOH concentrated solution to each glass vial (batch reactor).
Then, an appropriate volume was taken from each respective above stated 2 mM metalloporphyrin complex, or metallocorrin complex, stock solution, and added to each glass vial (batch reactor) containing endosulfan contaminated water and titanium (III) citrate, for providing a concentration of about 0.010 mM metalloporphyrin complex, or metallocorrin complex, electron transfer mediator (homogeneous) catalyst in the endosulfan contaminated water. At this point, the glass vials were sealed, and transferred to the orbital shaker.
The contents, i.e., the endosulfan contaminated water containing the titanium (III) citrate as bulk electron donor or reducing agent and the metalloporphyrin complex, or metallocorrin complex, electron transfer mediator (homogeneous) catalyst, in each glass vial (batch reactor), were continuously mixed by securing each glass vial onto the orbital shaker set at a mixing speed of 150 rpm during the entire extent of time or duration of reaction.
For each metalloporphyrin complex, or metallocorrin complex, GC/MS analytical samples were prepared after 72 hours from each of at least two glass vials containing the endosulfan contaminated water of the batch mode homogeneous catalytic reductive dechlorination reaction.

[4] = partitioning (adsorption and desorption) of electron transfer mediators on/off geological matter; assay type: physicochemical; conditions: Kaolinite clay, room temperature; for Adsorption (%) of (ETM) after 10 days: aqueous mixture; for Desorption (%) of (ETM) after 10 days: fresh water replaced
Procedure: Kaolinite clay, ‘purum, natural’ grade, was obtained from Fluka.
(§1) 40 milliliter (ml) (0.04 liter) glass vials (filled with 10 milliliters, of solution), were used at room temperature (between about 20° C. and about 25° C.) and atmospheric pressure, as the vessel or container, for containing the aqueous mixtures of the (partitioning) electron transfer mediator (ETM)—geological matter (soil or clay).
(§2) Ultraviolet and visible (UV/VIS) absorption spectrometry was used for measuring and determining the quantity (concentration), after a time period of 10 days each of (ETM) adsorption and desorption, of each (partitioning) electron transfer mediator (ETM) in the aqueous (liquid) phase of each respective electron transfer mediator (ETM)—geological matter (soil or clay) aqueous mixture. Multiple samples of the aqueous (liquid) phase of each mixture were taken from each respective glass vial (partitioning vessel).
(§3) The UV/VIS absorption spectrometer was a Varian, Cary 100, operative according to double beam analysis. Concentrations of the [TBSP-Ni], hematoporphyrin-Cobalt, and vitamin B12, electron transfer mediators (ETMs), were measured at absorption wavelengths of 527 nanometers (nm), 413 nanometers (nm), and 548 nanometers (nm), respectively.
(§4) The electron transfer mediator (ETM)—geological matter (soil or clay) partitioning experiments were performed at room temperature (between about 20° C. and about 25° C.) and atmospheric pressure.
(§5) Each prepared 2 mM metalloporphyrin complex, or metallocorrin complex, (ETM) aqueous stock solution, was diluted by a ratio of 1/10 or 1/100 with the distilled deionized filtered water, for forming respective diluted (ETM) stock solutions.
(§6) For each diluted (ETM) stock solution, corresponding to each respective electron transfer mediator (ETM), an amount of each type of geological matter, i.e., Bet Dagan soil, kaolinite clay, and montmorillonite clay, was weighed, and added to a separate glass vial (partitioning vessel). (ETM) Control solutions remained absent of any geological matter. […]
(§7) The ‘adsorption mode’ analytical samples were then analyzed by the above described (UV/VIS) absorption spectrometry procedure, for determining the quantity (concentration) of the [TBSP-Ni], hematoporphyrin-Cobalt, and vitamin B12, electron transfer mediator (ETM), present (i.e., remaining) in the aqueous (liquid) phase of each respective electron transfer mediator (ETM)—geological matter (soil or clay) aqueous mixture. Such analysis and determination corresponded to quantitatively measuring and determining the extent that the respective electron transfer mediator (ETM) left the aqueous (liquid) phase and ‘adsorbed’ onto the respective geological matter (soil or clay) (solid) phase. The (ETM) Control solutions were similarly analyzed. […]

[5] = as above; assay type: physicochemical; conditions: Bet Dagan soil, room temperature; for Adsorption (%) of (ETM) after 10 days: aqueous mixture; for Desorption (%) of (ETM) after 10 days: fresh water replaced
Procedure: Bet Dagan soil was obtained from the site of the Bet Dagan Agricultural Research Organization campus, Bet Dagan, Israel. The Bet Dagan soil was sieved to a size of 60 mesh, and maintained in a dry air environment until use.
as §1, §2, §3, §4, §5, §6
The ‘adsorption mode’ analytical samples were then analyzed by the above described (UV/VIS) absorption spectrometry procedure, for determining the quantity (concentration) of the [TBSP-Ni], hematoporphyrin-Cobalt, and vitamin B12, electron transfer mediator (ETM), present (i.e., remaining) in the aqueous (liquid) phase of each respective electron transfer mediator (ETM)—geological matter (soil or clay) aqueous mixture. […]

[6] = as above; assay type: physicochemical; conditions: Montmorillonite clay, room temperature; for Adsorption (%) of (ETM) after 10 days: aqueous mixture; for Desorption (%) of (ETM) after 10 days: fresh water replaced
Procedure: Montmorillonite clay, 10-12% impurities, was obtained from Fluka.
as §1, §2, §3, §4, §5, §6, §7

CCNc1nc(Cl)nc(NC(C)C)n1 [Atrazine, atrazine]
persistence in deep lakes [1]: exceed 10 years

Clc1ccc(C(c2ccc(Cl)cc2)C(Cl)(Cl)Cl)cc1 [DDT, DichloroDiphenylTrichloroethane]
partition coefficient, Kd, relative to aldicarb ([2]; ratio DDT / aldicarb): roughly 20,000 times | partition coefficient, Kd, relative to atrazine ([2]; ratio DDT / atrazine): ~1,500 times

C=Cc1c(C)c2cc3[nH]c(cc4nc(cc5nc(cc1[nH]2)C(C)=C5CCC(=O)[O-])C(CCC(=O)[O-])=C4C)c(C)c3C=C.[Co+2] [Protoporphyrin IX-Co, protoporphyrin IX-Cobalt]
Normalized Endosulfan Concentration (%) α isomer [3]: 31.5% | Normalized Endosulfan Concentration (%) β isomer [3]: 37.8%

O=S(=O)(O)c1ccc(-c2c3nc(c(-c4ccc(S(=O)(=O)O)cc4)c4ccc([nH]4)c(-c4ccc(S(=O)(=O)O)cc4)c4nc(c(-c5ccc(S(=O)(=O)O)cc5)c5ccc2[nH]5)C=C4)C=C3)cc1.[Co] [[TBSP—Co], 4,4′,4″,4′″-(porphine-5,10,15,20-tetrayl)tetrakis(benzenesulfonic acid)-Cobalt]
Normalized Endosulfan Concentration (%) α isomer [3]: 2.8% | Normalized Endosulfan Concentration (%) β isomer [3]: 0.0%

O=S(=O)(O)c1ccc(-c2c3nc(c(-c4ccc(S(=O)(=O)O)cc4)c4ccc([nH]4)c(-c4ccc(S(=O)(=O)O)cc4)c4nc(c(-c5ccc(S(=O)(=O)O)cc5)c5ccc2[nH]5)C=C4)C=C3)cc1.[Ni] [[TBSP—Ni], 4,4′,4″,4′″-(porphine-5,10,15,20-tetrayl)tetrakis(benzenesulfonic acid)-Nickel]
Adsorption (%) of (ETM) after 10 days [4]: 59.44 ± 1.21% | Desorption (%) of (ETM) after 10 days [4]: 40.17 ± 5.51% | Adsorption (%) of (ETM) after 10 days [5]: 71.68 ± 2.31% | Desorption (%) of (ETM) after 10 days [5]: 21.22 ± 2.55% | Normalized Endosulfan Concentration (%) α isomer [3]: 1.3% | Normalized Endosulfan Concentration (%) β isomer [3]: 0.0% | Adsorption (%) of (ETM) after 10 days [6]: 95.50 ± 0.44% | Desorption (%) of (ETM) after 10 days [6]: 8.57 ± 1.28%

C[n+]1ccc(-c2c3nc(c(-c4cc[n+](C)cc4)c4ccc([n-]4)c(-c4cc[n+](C)cc4)c4nc(c(-c5cc[n+](C)cc5)c5ccc2[n-]5)C=C4)C=C3)cc1.[Co+2] [[TMPyP—Co], tetramethylpyridilporphyrin-Cobalt [5,10,15,20-tetrakis(1-methyl-4-pyridinio)-porphine-Cobalt]]
Normalized Endosulfan Concentration (%) α isomer [3]: 1.2% | Normalized Endosulfan Concentration (%) β isomer [3]: 0.0%

C[n+]1ccc(-c2c3nc(c(-c4cc[n+](C)cc4)c4ccc([n-]4)c(-c4cc[n+](C)cc4)c4nc(c(-c5cc[n+](C)cc5)c5ccc2[n-]5)C=C4)C=C3)cc1.[Fe+2] [[TMPyP—Fe], tetramethylpyridilporphyrin-Iron [5,10,15,20-tetrakis(1-methyl-4-pyridinio)-porphine-Iron]]
Normalized Endosulfan Concentration (%) α isomer [3]: 40.7% | Normalized Endosulfan Concentration (%) β isomer [3]: 66.7%

C[n+]1ccc(-c2c3nc(c(-c4cc[n+](C)cc4)c4ccc([n-]4)c(-c4cc[n+](C)cc4)c4nc(c(-c5cc[n+](C)cc5)c5ccc2[n-]5)C=C4)C=C3)cc1.[Ni+2] [[TMPyP—Ni], tetramethylpyridilporphyrin-Nickel [5,10,15,20-tetrakis(1-methyl-4-pyridinio)-porphine-Nickel]]
Normalized Endosulfan Concentration (%) α isomer [3]: 0.0% | Normalized Endosulfan Concentration (%) β isomer [3]: 0.0%

Oc1ccc(-c2c3nc(c(-c4ccc(O)cc4)c4ccc([n-]4)c(-c4ccc(O)cc4)c4nc(c(-c5ccc(O)cc5)c5ccc2[n-]5)C=C4)C=C3)cc1.[Co+2] [[TP(OH)P—Co], tetrahydroxyphenylporphyrine-Cobalt [5,10,15,20-tetrakis(4-hydroxyphenyl)-21H,23H-porphine-Cobalt]]
Normalized Endosulfan Concentration (%) α isomer [3]: 8.3% | Normalized Endosulfan Concentration (%) β isomer [3]: 12.3%

Oc1ccc(-c2c3nc(c(-c4ccc(O)cc4)c4ccc([n-]4)c(-c4ccc(O)cc4)c4nc(c(-c5ccc(O)cc5)c5ccc2[n-]5)C=C4)C=C3)cc1.[Ni+2] [[TP(OH)P—Ni], tetrahydroxyphenylporphyrine-Nickel [5,10,15,20-tetrakis(4-hydroxyphenyl)-21H,23H-porphine-Nickel]]
Normalized Endosulfan Concentration (%) α isomer [3]: 8.3% | Normalized Endosulfan Concentration (%) β isomer [3]: 9.3%

hematoporphyrin-Cobalt
Adsorption (%) of (ETM) after 10 days [4]: 45.28 ± 1.85% | Desorption (%) of (ETM) after 10 days [4]: 12.65 ± 0.67% | Adsorption (%) of (ETM) after 10 days [5]: 12.80 ± 1.2% | Desorption (%) of (ETM) after 10 days [5]: 5.87 ± 0.32% | Normalized Endosulfan Concentration (%) α isomer [3]: 9.4% | Normalized Endosulfan Concentration (%) β isomer [3]: 9.7% | Adsorption (%) of (ETM) after 10 days [6]: 100% | Desorption (%) of (ETM) after 10 days [6]: 0%
